{"source": "paper PMC4180818", "about": "(Metabolic brain disease, 2013)", "biological_target": "human glutamine synthetase (Homo sapiens, UniProt P15104)", "sequence (P15104 2-373)": "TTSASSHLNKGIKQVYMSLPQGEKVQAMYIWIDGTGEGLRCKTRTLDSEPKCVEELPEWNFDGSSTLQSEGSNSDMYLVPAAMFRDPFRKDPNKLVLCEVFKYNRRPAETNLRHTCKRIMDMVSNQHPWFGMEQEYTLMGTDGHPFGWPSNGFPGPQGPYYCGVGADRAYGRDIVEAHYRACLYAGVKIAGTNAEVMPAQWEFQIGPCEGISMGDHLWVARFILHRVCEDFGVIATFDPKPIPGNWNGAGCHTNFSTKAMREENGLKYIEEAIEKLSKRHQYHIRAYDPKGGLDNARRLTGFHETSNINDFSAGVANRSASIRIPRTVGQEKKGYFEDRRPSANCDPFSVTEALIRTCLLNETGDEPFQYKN", "assay": "coupled pyruvate kinase/lactate dehydrogenase NADH assay", "type": "biochemical"}
{"smiles": "CS(=N)(=O)CCC(N)C(=O)O", "note": "(mixture of isomers) [MSO, L-methionine-S,R-sulfoximine]", "values": [{"measurement": "Ki", "value": 1190, "unit": "µM"}]}
